Assay results reported in US9187472B2 (AbbVie Inc., priority 2012, dated 2015).

tested on: PC3 cells; test: NAMPT Cell Proliferation Assay; assay type: cell-based; conditions: Homo sapiens, PC-3, 120 h, 5 days incubation, cell viability by Cell Titer Glo
Outline: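 Proliferation of PC3 cells treated 5 days with a 10-fold compound series (top 10 μM) was quantified by Cell Titer Glo luminescence; IC50s were fitted from percent inhibition.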

SMILES | IC50
CC1(C(=O)N2CCC(c3ccc(C(=O)NCc4cn5ccnc5cn4)c(F)c3)CC2)CC1 [Example 1158, 2-fluoro-N-(imidazo[1,2-a]pyrazin-6-ylmethyl)-4-{1-[(1-methylcyclopropyl)carbonyl]piperidin-4-yl}benzamide] | 2.04 nM
O=C(NCc1ccn2ccnc2c1)c1ccc(-c2cnn(CCN3CCNCC3)c2)o1 [Example 889, N-(imidazo[1,2-a]pyridin-7-ylmethyl)-5-{1-[2-(piperazin-1-yl)ethyl]-1H-pyrazol-4-yl}furan-2-carboxamide] | 651 nM
O=C(NCc1ccn2ccnc2c1)c1ccc(C2CCN(C(=O)c3scnc3Cl)CC2)cc1 [Example 1102, 4-{1-[(4-chloro-1,3-thiazol-5-yl)carbonyl]piperidin-4-yl}-N-(imidazo[1,2-a]pyridin-7-ylmethyl)benzamide] | 1.77 nM
O=C(NCc1ccn2ccnc2c1)Nc1ccc(C2CCN(C(=O)c3cnnc4ccccc34)CC2)cc1 [Example 1031, 1-{4-[1-(cinnolin-4-ylcarbonyl)piperidin-4-yl]phenyl}-3-(imidazo[1,2-a]pyridin-7-ylmethyl)urea] | 7.73 nM
COc1csc(C(=O)N2CCC(c3ccc(C(=O)NCc4ccn5ccnc5c4)cc3)CC2)c1 [Example 1092, N-(imidazo[1,2-a]pyridin-7-ylmethyl)-4-{1-[(4-methoxythiophen-2-yl)carbonyl]piperidin-4-yl}benzamide] | 17.7 nM
CC1(Cn2cc(-c3ccc(C(=O)NCc4ccn5ccnc5c4)s3)cn2)CCN(C(=O)CCNC(=O)CSC[C@H](N)C(=O)O)CC1 [Example 1166, S-{2-[(3-{4-[(4-{5-[(imidazo[1,2-a]pyridin-7-ylmethyl)carbamoyl]thiophen-2-yl}-1H-pyrazol-1-yl)methyl]-4-methylpiperidin-1-yl}-3-oxopropyl)amino]-2-oxoethyl}-L-cysteine] | 26.1 nM
CCN(CC)CCC(=O)N1CCC(c2ccc(C(=O)NCc3ccn4ccnc4c3)cc2)CC1 [Example 928, 4-[1-(N,N-diethyl-beta-alanyl)piperidin-4-yl]-N-(imidazo[1,2-a]pyridin-7-ylmethyl)benzamide] | 106 nM
CC(C)C(=O)N1CCC(c2ccc(NC(=O)NCc3ccn4c(Cl)cnc4c3)cc2)CC1 [Example 904, 1-[(3-chloroimidazo[1,2-a]pyridin-7-yl)methyl]-3-{4-[1-(2-methylpropanoyl)piperidin-4-yl]phenyl}urea] | 282 nM
O=C(Cc1ccn2ccnc2c1)Nc1ccc(C2CCN(C(=O)c3ccc(F)cc3F)CC2)cc1 [Example 902, N-{4-[1-(2,4-difluorobenzoyl)piperidin-4-yl]phenyl}-2-(imidazo[1,2-a]pyridin-7-yl)acetamide] | 10.8 nM
O=C(NCc1cn2ccnc2cn1)c1ccc(C2CCN(C(=O)C3CCOCC3)CC2)s1 [Example 841, N-(imidazo[1,2-a]pyrazin-6-ylmethyl)-5-[1-(tetrahydro-2H-pyran-4-ylcarbonyl)piperidin-4-yl]thiophene-2-carboxamide] | 6.13 nM
CC(C)(C(=O)Nc1ccc(C(=O)NCc2ccn3ccnc3c2)cc1)c1ccccc1 [Example 896, N-(imidazo[1,2-a]pyridin-7-ylmethyl)-4-[(2-methyl-2-phenylpropanoyl)amino]benzamide] | 1580 nM
C=CCn1nc(C)cc1C(=O)N1CCC(c2ccc(C(=O)NCc3ccn4ccnc4c3)cc2)CC1 [Example 1003, N-(imidazo[1,2-a]pyridin-7-ylmethyl)-4-(1-{[3-methyl-1-(prop-2-en-1-yl)-1H-pyrazol-5-yl]carbonyl}piperidin-4-yl)benzamide] | 4.96 nM
O=C(NCc1ccc2ncnn2c1)c1ccc(C2CCN(C(=O)CC(F)(F)F)CC2)s1 [Example 846, N-([1,2,4]triazolo[1,5-a]pyridin-6-ylmethyl)-5-[1-(3,3,3-trifluoropropanoyl)piperidin-4-yl]thiophene-2-carboxamide] | 74.4 nM
COc1ncc(C)cc1C(=O)N1CCC(c2ccc(NC(=O)NCc3ccn4ccnc4c3)cc2)CC1 [Example 1147, 1-(imidazo[1,2-a]pyridin-7-ylmethyl)-3-(4-{1-[(2-methoxy-5-methylpyridin-3-yl)carbonyl]piperidin-4-yl}phenyl)urea] | 2.83 nM
C[C@H]1CCCC[C@H]1OCC(=O)N1CCC(c2ccc(C(=O)NCc3ccn4ccnc4c3)cc2)CC1 [Example 931, N-(imidazo[1,2-a]pyridin-7-ylmethyl)-4-[1-({[(1R,2S)-2-methylcyclohexyl]oxy}acetyl)piperidin-4-yl]benzamide] | 6.77 nM
N#Cc1cc(F)cc(C(=O)N2CCC(c3ccc(NC(=O)NCc4ccn5ccnc5c4)cc3)CC2)c1 [Example 1048, 1-{4-[1-(3-cyano-5-fluorobenzoyl)piperidin-4-yl]phenyl}-3-(imidazo[1,2-a]pyridin-7-ylmethyl)urea] | 8.27 nM
COc1cc(OC)cc(C(=O)N2CCC(c3ccc(C(=O)NCc4ccn5ccnc5c4)cc3)CC2)c1 [Example 919, 4-[1-(3,5-dimethoxybenzoyl)piperidin-4-yl]-N-(imidazo[1,2-a]pyridin-7-ylmethyl)benzamide] | 101 nM

SMILES | IC50
CCOc1cc(C(=O)N2CCC(c3ccc(NC(=O)NCc4ccn5ccnc5c4)cc3)CC2)ccn1 [Example 1043, 1-(4-{1-[(2-ethoxypyridin-4-yl)carbonyl]piperidin-4-yl}phenyl)-3-(imidazo[1,2-a]pyridin-7-ylmethyl)urea] | 10.4 nM
Cc1nn(C)c(C(=O)N2CCC(c3ccc(C(=O)NCc4ccn5ccnc5c4)cc3)CC2)c1Cl [Example 1087, 4-{1-[(4-chloro-1,3-dimethyl-1H-pyrazol-5-yl)carbonyl]piperidin-4-yl}-N-(imidazo[1,2-a]pyridin-7-ylmethyl)benzamide] | 1.68 nM
CCCc1c(C(=O)N2CCC(c3ccc(C(=O)NCc4ccn5ccnc5c4)cc3)CC2)cnn1C [Example 1105, N-(imidazo[1,2-a]pyridin-7-ylmethyl)-4-{1-[(1-methyl-5-propyl-1H-pyrazol-4-yl)carbonyl]piperidin-4-yl}benzamide] | 2.6 nM
Cn1nc(C(=O)N2CCC(c3ccc(C(=O)NCc4ccn5ccnc5c4)cc3)CC2)c2c1CCCC2 [Example 994, N-(imidazo[1,2-a]pyridin-7-ylmethyl)-4-{1-[(1-methyl-4,5,6,7-tetrahydro-1H-indazol-3-yl)carbonyl]piperidin-4-yl}benzamide] | 12.1 nM
O=C(NCc1ccn2ccnc2c1)c1ccc(-c2cnn(CC34CC5CC(CC(C5)O3)C4)c2)s1 [Example 886] | 0.194 nM
Cc1cccc(C(=O)N2CCC(c3ccc(C(=O)NCc4ccn5ccnc5c4)cc3)CC2)c1O [Example 937, 4-[1-(2-hydroxy-3-methylbenzoyl)piperidin-4-yl]-N-(imidazo[1,2-a]pyridin-7-ylmethyl)benzamide] | 80.9 nM
Cc1cccc(C(=O)N2CCC(c3ccc(NC(=O)NCc4ccn5ccnc5c4)cc3)CC2)c1O [Example 957, 1-{4-[1-(2-hydroxy-3-methylbenzoyl)piperidin-4-yl]phenyl}-3-(imidazo[1,2-a]pyridin-7-ylmethyl)urea] | 3.51 nM
Cc1cccn2cc(C(=O)N3CCC(c4ccc(NC(=O)NCc5ccn6ccnc6c5)cc4)CC3)nc12 [Example 1042, 1-(imidazo[1,2-a]pyridin-7-ylmethyl)-3-(4-{1-[(8-methylimidazo[1,2-a]pyridin-2-yl)carbonyl]piperidin-4-yl}phenyl)urea] | 3.59 nM
CC(C)Cc1cc(-c2ccc(C(=O)NCc3ccn4ccnc4c3)s2)n(C)n1 [Example 906, N-(imidazo[1,2-a]pyridin-7-ylmethyl)-5-[1-methyl-3-(2-methylpropyl)-1H-pyrazol-5-yl]thiophene-2-carboxamide] | 4.17 nM
O=C(NCc1ccn2ccnc2c1)c1ccc(NC(=O)c2ccc(F)cc2F)cc1 [Example 873, 2,4-difluoro-N-{4-[(imidazo[1,2-a]pyridin-7-ylmethyl)carbamoyl]phenyl}benzamide] | 3870 nM
O=C(NCc1ccn2ccnc2c1)Nc1ccc(C2CCN(C(=O)[C@@H]3COc4ccccc4O3)CC2)cc1 [Example 1012, 1-(4-{1-[(2S)-2,3-dihydro-1,4-benzodioxin-2-ylcarbonyl]piperidin-4-yl}phenyl)-3-(imidazo[1,2-a]pyridin-7-ylmethyl)urea] | 8.36 nM
O=C(NCc1ccn2ccnc2c1)c1ccc(C2CCN(C(=O)c3cc(C4CC4)on3)CC2)cc1 [Example 973, 4-{1-[(5-cyclopropyl-1,2-oxazol-3-yl)carbonyl]piperidin-4-yl}-N-(imidazo[1,2-a]pyridin-7-ylmethyl)benzamide] | 21.8 nM
O=C(NCc1ccn2ccnc2c1)c1ccc(C2CCN(C(=O)c3ccnn3C(F)F)CC2)cc1 [Example 969, 4-(1-{[1-(difluoromethyl)-1H-pyrazol-5-yl]carbonyl}piperidin-4-yl)-N-(imidazo[1,2-a]pyridin-7-ylmethyl)benzamide] | 6.36 nM
Cc1oc(C(C)C)cc1C(=O)N1CCC(c2ccc(C(=O)NCc3ccn4ccnc4c3)cc2)CC1 [Example 1064, N-(imidazo[1,2-a]pyridin-7-ylmethyl)-4-(1-{[2-methyl-5-(propan-2-yl)furan-3-yl]carbonyl}piperidin-4-yl)benzamide] | 4.12 nM
O=C(NCc1ccn2ccnc2c1)Nc1ccc(C2CCN(C(=O)c3cncc4ccccc34)CC2)cc1 [Example 1027, 1-(imidazo[1,2-a]pyridin-7-ylmethyl)-3-{4-[1-(isoquinolin-4-ylcarbonyl)piperidin-4-yl]phenyl}urea] | 2.28 nM
CC(C)Cn1nccc1-c1ccc(C(=O)NCc2ccn3ccnc3c2)s1 [Example 899, N-(imidazo[1,2-a]pyridin-7-ylmethyl)-5-[1-(2-methylpropyl)-1H-pyrazol-5-yl]thiophene-2-carboxamide] | 181 nM
Cc1cccc(C(=O)N2CCC(c3ccc(C(=O)NCc4ccn5ccnc5c4)cc3)CC2)c1 [Example 923, N-(imidazo[1,2-a]pyridin-7-ylmethyl)-4-[1-(3-methylbenzoyl)piperidin-4-yl]benzamide] | 4.58 nM
